According to patent publication EP0316592A2, “3'-Fluoro-2',3'-dideoxyuridine, and its therapeutic application” (Stichting REGA V.Z.W., priority 1987, dated 1989):

Tests used:
[1] = tested on: HIV; settings: MT4 lymphocytes; cited from earlier work
[2] = tested on: Moloney murine sarcoma virus (MSV); assay: Inhibition of transformation of C3H cells by MSV; assay type: cell-based
Experimental: Moloney murine sarcoma virus (MSV) was prepared from tumors induced by in vivo infection of 10 day-old NMRI mice according to the procedure described by De Clercq et al (Proc. Soc. Exp. Biol. Med. 137, 590-594 (1971)).
ddUrd and the substituted pymiridine 2′,3′-dideoxynucleoside analogues were examined for their inhibitory effect on the transformation of mouse embryo C3H fibroblasts by Moloney murine sarcoma virus (MSV).
C3H cells were seeded at 20,000 cells per ml into wells of Costar Tissue Culture Cluster plates (48 wells per plate) and grown to confluency. Cell cultures were then infected by 150 foci-forming units of MSV during 90 min, whereafter the culture medium was replaced by 1 ml fresh medium containing different concentrations of the test compound. After 6 days, the transformation of the cell cultures was examined microscopically.

[3] = tested on: C3H cells; assay: Cytotoxicity for C3H cells (alteration of normal cell morphology); assay type: cell-based, mouse; settings: alteration of normal cell morphology, C3H cells
[4] = target: T1, Molt/4F dCyd kinase (Homo sapiens, UniProt P27707); assay: Inhibition of dCyd kinase (Lineweaver-Burk); assay type: biochemical
T1 construct: endogenous in cells; host or cells: Molt/4F cells (sonicated extract, 30-70% ammonium sulfate fraction, dialyzed)
T1 sequence (P27707 whole entry): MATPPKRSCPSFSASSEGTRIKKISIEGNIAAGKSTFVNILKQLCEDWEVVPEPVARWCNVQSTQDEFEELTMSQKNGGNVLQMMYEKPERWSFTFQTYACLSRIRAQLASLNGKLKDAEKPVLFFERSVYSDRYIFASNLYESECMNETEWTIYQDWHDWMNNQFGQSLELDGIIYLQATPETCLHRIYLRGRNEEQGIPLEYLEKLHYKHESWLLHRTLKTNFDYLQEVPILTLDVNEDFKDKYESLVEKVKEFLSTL
Experimental: ddUrd and the 3′-fluoro- and 3′-azido-substituted pyrimidine 2′,3′-dideoxynucleoside analogues were evaluated for their inhibitory effect against dThd and dCyd kinase.
dThd kinase and dCyd kinase were prepared from exponen tially growing Molt/4F cells, which were first washed (2x) with phosphate-buffered saline at 4° and then homogenized by sonication. The suspensions were clarified by centrifugation at 25,000-27,000 x g for 30 min. The 30-70% (NH₄)₂SO₄ precipitate of the supernatant was resuspended in buffer containing 10 uM potassium phosphate, pH 7.5, 10 mM β-mercaptoethanol and 0.1 M KCl, dialyzed against the same buffer, and used for the dThd kinase and the dCyd kinase assays. In these experiments, (2-¹⁴C)dThd and (U-¹⁴C)dCyd served as the radiolabelled substrates. The apparent Km and Ki values were derived from Lineweaver-Burk plots, using a linear regression analysis program. The assay procedures have been described in detail (J. Balzarini et al, (1983) and J. Balzarini et al, Biochem. Pharmacol. 31, 3673-3682 (1982)).

[5] = target: T2, bacterial thymidine phosphorylase (Escherichia coli, UniProt P07650); assay: Phosphorolytic cleavage by dThd phosphorylase; assay type: biochemical; settings: for Initial velocity of phosphorolysis: 25°C, 0.1 M sodium phosphate buffer, pH 7.0, N.D. = not detectable with 25 units of enzyme
T2 construct: purchased Sigma Chemical Co., St. Louis, MO
T2 sequence (P07650 whole entry): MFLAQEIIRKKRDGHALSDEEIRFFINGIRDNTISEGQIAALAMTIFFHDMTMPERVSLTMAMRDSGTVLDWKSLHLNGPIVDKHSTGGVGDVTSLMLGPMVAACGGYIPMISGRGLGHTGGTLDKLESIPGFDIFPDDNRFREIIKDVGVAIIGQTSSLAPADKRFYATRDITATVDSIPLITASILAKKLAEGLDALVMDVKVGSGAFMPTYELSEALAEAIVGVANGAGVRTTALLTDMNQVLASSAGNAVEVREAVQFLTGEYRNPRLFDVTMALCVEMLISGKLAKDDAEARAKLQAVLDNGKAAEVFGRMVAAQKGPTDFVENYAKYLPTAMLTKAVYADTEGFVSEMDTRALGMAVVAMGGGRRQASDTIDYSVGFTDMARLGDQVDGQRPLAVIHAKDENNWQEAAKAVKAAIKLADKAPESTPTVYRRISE
Experimental: Phosphorolytic cleavage of the test compounds was assessed using purified bacterial dThd phosphorylase (Sigma Chemical Co., St. Louis, MO) with the aid of a Beckman spectrophotometer UV/Vis 5200; the absorbance change during the enzyme reaction was continuously monitored at 25°C at the wavelength where the difference of absorption between the nucleoside and its free base was maximal. The reaction mixtures for all the assays consisted of enzyme and non-satura ting concentrations of nucleoside in 0.1 M sodium phosphate buffer, pH 7.0. The initial velocity of phosphorolysis was expressed as nmol/min/enzyme unit.

[6] = tested on: HIV; settings: ATH8 T-lymphocyte cell line; cited from earlier work

Compound: Cc1cn([C@H]2C=C[C@@H](CO)O2)c(=O)[nH]c1=O [2′,3′-didehydro-2′,3′-dideoxythymidine]
- concentration that protects MT4 cells against HIV [1]: 0,04 µM

Compound: [N-]=[N+]=N[C@H]1C[C@H](n2ccc(N)nc2=O)O[C@@H]1CO [AzddCyd, 3′-Azido-2′,3′-dideoxycytidine]
- EC50 ([2]; Moloney murine sarcoma virus, 144 h, 50% reduction of transformation of C3H cells by MSV, 6 days, read-out: MSV-induced cyto-pathogenicity ED50): 70 µM
- MSV-induced cyto-pathogenicity S.I. ([2]; Selectivity index or ratio of CD50 to ED50, C3H cells): > 5.7
- MSV-induced cyto-pathogenicity CD50 [3]: >400 µM
- Ki/Km ([4]; Km 5.2 to 6.4 µM): 58
- Ki ([4]; substrate (U-14C)dCyd): 354 µM
- Type of inhibition ([4]; with respect to dCyd): competitive
- susceptibility to phosphorolysis by dThd phosphorylase (in words) ([5]; purified bacterial dThd phosphorylase): totally resistant
- anti-retroviral effect compared with ddCyd [6]: much less effective than ddCyd

Compound: Cc1cn([C@H]2CC[C@@H](CO)O2)c(=O)[nH]c1=O [2′,3′-dideoxythymidine]
- concentration that protects MT4 cells against HIV [1]: 1 µM

Compound: CCc1cn([C@H]2C[C@H](O)[C@@H](CO)O2)c(=O)[nH]c1=O [dEtUrd]
- Initial velocity of phosphorolysis [5]: 0.893 nmol/min/unit

Compound: O=c1ccn([C@H]2C[C@H](O)[C@@H](CO)O2)c(=O)[nH]1 [dUrd]
- Initial velocity of phosphorolysis [5]: 361 nmol/min/unit

Compound: Cc1cn([C@H]2C[C@H](N=[N+]=[N-])[C@@H](CO)O2)c(=O)[nH]c1=O [AzddThd, 3′-azido-2′,3′-dideoxythymidine]
- concentration that protects MT4 cells against HIV [1]: 0.02 µM
